Measurements taken from patent publication US20120309796A1, “BENZOCYCLOHEPTENE ACETIC ACIDS” (priority 2011, published 2012).

Experiments:
human CRTH2 [1] = biological target: T1, human CRTH2 (Homo sapiens, UniProt Q9Y5Y4); test: Calcium Flux Assay Using Fluorometric Imaging Plate Reader (FLIPR); assay type: cell-based; parameters: expressed in transfected cells; host or cells: CHO-K1 previously transfected with G-alpha 16; details: CHO-K1 cells with G-alpha 16 and human CRTH2; inhibition of DK-PGD2 ligand-induced Ca2+ flux
T1 sequence (Q9Y5Y4 1-395): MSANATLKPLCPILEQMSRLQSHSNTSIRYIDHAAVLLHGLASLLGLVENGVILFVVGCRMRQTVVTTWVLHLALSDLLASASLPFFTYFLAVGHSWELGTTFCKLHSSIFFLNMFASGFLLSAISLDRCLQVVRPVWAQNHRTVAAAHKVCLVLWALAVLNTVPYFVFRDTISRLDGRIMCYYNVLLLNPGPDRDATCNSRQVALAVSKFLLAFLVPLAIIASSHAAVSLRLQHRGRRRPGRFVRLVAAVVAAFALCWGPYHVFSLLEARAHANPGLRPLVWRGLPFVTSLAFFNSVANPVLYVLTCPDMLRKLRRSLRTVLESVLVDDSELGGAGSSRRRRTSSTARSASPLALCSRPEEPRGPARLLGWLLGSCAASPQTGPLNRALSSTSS
Protocol: CHO-K1 cells previously transfected with G-alpha 16 were subsequently transfected with the human CRTH2 receptor and the neomycin resistance gene. Following selection in 800 μg/mL G418 (geneticin), individual clones were assayed for their receptor expression based on staining with an anti human CRTH2 IgG, followed by assaying for their response to 13,14-dihydro-15-keto Prostaglandin D2 (DK-PDG2) (ligand) in the Ca^2+ Flux assay. Positive clones were then cloned by limiting dilution cloning. The transfected cells were cultured in Ham's F-12 medium supplemented with 10% fetal bovine serum, 2 mM glutamine, 100 U/mL penicillin/100 μg/mL streptomycin, 200 μg/mL hygromycin B, and 800 μg/mL G418 (geneticin). Cells were harvested with trypsin-EDTA (trypsin-ethylenediaminetetraacetic acid) and counted using ViaCount® reagent (from Guava Technologies, Inc. which contains two DNA-binding dyes that enable the reagent user to distinguish between viable and non-viable cells). The cell suspension volume was adjusted to 2.5×10^5 cells/mL with complete growth media. Aliquots of 50 μL were dispensed into BD Falcon™ 384 well black/clear microplates (from BD Biosciences, a division of Becton, Dickinson and Company) and the microplates were placed in a 37° C. CO2 incubator overnight. The following day, the microplates were used in the assay.
Loading Buffer containing dye (from the FLIPR® Calcium 3 Assay Kit from Molecular Devices, a division of MDS Analytical Technologies and MDS Inc.) was prepared by dissolving the contents of one bottle into 200 mL Hank's Balanced Salt Solution containing 20 mM HEPES (4-(2-hydroxyethyl)-1-piperazineethanesulfonic acid) and 2.5 mM probenecid. Growth media was removed from the cell plates and 25 μL of Hank's Balanced Salt Solution (HBSS) containing 20 mM HEPES, 0.05% BSA and 2.5 mM probenecid was added to each well followed by 25 μL of diluted dye using a Multidrop dispenser. The plates were then incubated for 1 hour at 37° C.
During the incubation, test compound plates were prepared by adding 90 μL of HBSS/20 mM HEPES/0.005% BSA buffer to the 2 μL of serial diluted compounds. To prepare serial diluted compounds, 20 mM stocks of compounds were dissolved in 100% DMSO. The compound dilution plate was set up as follows: well #1 received 5 μL of compound plus 10 μL of DMSO. Wells 2-10 received 10 μL of DMSO. 5 μL was mixed and transferred from well #1 into well #2. 1:3 serial dilutions were continued out 10 steps. 2 μl of diluted compound was transferred into duplicate wells of a 384 well “assay plate” and then 90 μL of buffer was added.
After incubation, both the cell and “assay plate” plates were brought to the fluorometric imaging plate reader (FLIPR®) and 20 μL of the diluted compounds were transferred to the cell plates by the FLIPR®. Plates were then incubated for 1 hour at room temperature. After the 1 hour incubation, plates were returned to the FLIPR® and 20 μL of 4.5× concentrated ligand was added to the cell plates. During the assay, fluorescence readings were taken simultaneously from all 384 wells of the cell plate every 1.5 seconds. Five readings were taken to establish a stable baseline, then 20 μL of sample was rapidly (30 μL/sec) and simultaneously added to each well of the cell plate. The fluorescence was continuously monitored before, during and after sample addition for a total elapsed time of 100 seconds. Responses (increase in peak fluorescence) in each well following agonist addition were determined. The initial fluorescence reading from each well, prior to ligand stimulation, was used as a zero baseline value for the data from that well. The responses were expressed as % inhibition of the buffer control. […]

human CRTH2 [2] = biological target: T1, human CRTH2; test: Human CRTH2 Receptor Binding Assay (whole cell, [3H]ramatroban competition); parameters: two mammalian expression vectors that harbored human CRTH2 and G-alpha16 cDNAs; expressed in transfected cells; details: CHO-K1 cells expressing human CRTH2 and G-alpha16; 20 nM [3H]ramatroban; 1 hour, room temperature
Description: A whole cell receptor binding assay using [^3H]ramatroban as the competing radioactive ligand was employed to evaluate the compound binding activity to human CRTH2. The radioactive ligand [^3H]ramatroban was synthesized according to Sugimoto et. al. (Eur. J. Pharmacol. 2005, 524, 30-37) to a specific activity of 42 Ci/mmol
A cell line stably expressing human CRTH2 was established by transfecting CHO-K1 cells with two mammalian expression vectors that harbored human CRTH2 and G-alpha16 cDNAs, respectively, using FuGene® 6 transfection reagent (from Roche). Stable clones expressing CRTH2 were selected by staining each clone with BM16 (BD Pharmingen™ from BD Biosciences, a division of Becton, Dickinson and Company), which is a rat monoclonal antibody to human CRTH2. The cells were maintained as monolayer cultures in Ham's F-12 medium containing 10% fetal bovine serum, 100 units/mL penicillin, 100 μg/mL streptomycin, 2 mM glutamine, 0.5 mg/mL G418 (geneticin) for CRTH2, and 0.2 mg/mL hygromycin-B (for G-alpha 16). For whole cell receptor binding assay, the monolayer cells were rinsed once with PBS (phosphate buffered saline), dissociated using ethylenediaminetetraacetate (Versene™ EDTA from Lonza Inc.), and suspended in PBS containing 10 mM MgCl2 and 0.06% BSA (bovine serum albumin) at 1.5×10^6 cells/mL.
The binding reactions (0.2 mL) were performed in 96-well plates at room temperature in PBS containing 1.5×10^5 cells, 10 mM MgCl2, 0.06% BSA, 20 nM [^3H]ramatroban, and test compound at various concentrations. After 1 hour of binding reactions, the cells were harvested on GF™/B filter microplates (microtiter plates with embedded glass fiber from PerkinElmer, Inc.) and washed 5 times with PBS using a Filtermate™ Harvester (a cell harvester that harvests and washes cells from microplates from PerkinElmer, Inc.). The radioactivities bound to the cells were determined using a microplate scintillation counter (TopCount® NXT, from PerkinElmer, Inc.) after adding 50 μL of Microscint™ 20 scintillation fluid (from PerkinElmer, Inc.) to each well of the filter plates. The radioactivity from non-specific binding was determined by replacing compound with 10 μM of 15(R)-15-methyl PGD2 (from Cayman Chemical Company) in the reaction mixtures. The radioactivity bound to the cells in the absence of compound (total binding) was determined by replacing compound with 0.25% of DMSO (dimethyl sulfoxide) in the reaction mixture. Specific binding data were obtained by subtracting the radioactivity of non-specific binding from each binding data.
The IC50 value is defined as the concentration of the tested compound that is required for 50% inhibition of total specific binding. In order to calculate the IC50 value, the percent inhibition data were determined for 7 concentrations for each compound. The percent inhibition for a compound at each concentration was calculated according to the following formula, [1-(specific binding in the presence of compound)/(total specific binding)]×100. The IC50 value was then obtained by fitting the percent inhibition data to a sigmoidal dose-response (4 parameter logistic) model in the XLfit® software Excel add-in program [from ID Business Solutions Ltd., model 205, where F(x)=(A+(B−A)/(1+((C/x)̂D)))].

IC50 (human CRTH2 [1]) | IC50 (human CRTH2 [2]) | SMILES
42.1 nM | 103 nM | O=C(O)COc1cccc2c1CCCCC2NS(=O)(=O)c1ccc(-c2ccc(O)cc2)cc1 (stereo not shown) [Example 23, [5-(4′-Hydroxy-biphenyl-4-sulfonylamino)-6,7,8,9-tetrahydro-5H-benzocyclohepten-1-yloxy]-acetic acid]
340 nM | 58.4 nM | O=C(O)COc1cccc2c1CCCCC2NS(=O)(=O)c1cc(Cl)cc(Cl)c1 (stereo not shown) [Example 2, [5-(3,5-Dichloro-benzenesulfonylamino)-6,7,8,9-tetrahydro-5H-benzocyclohepten-1-yloxy]-acetic acid]
60.6 nM | 9.1 nM | CS(=O)(=O)c1cccc(-c2ccc(S(=O)(=O)NC3CCCCc4c(OCC(=O)O)cccc43)cc2)c1 (stereo not shown) [Example 29, [5-(3′-Methanesulfonyl-biphenyl-4-sulfonylamino)-6,7,8,9-tetrahydro-5H-benzocyclohepten-1-yloxy]-acetic acid]
476 nM | 26.7 nM | CC(C)c1cccc(-c2ccc(S(=O)(=O)NC3CCCCc4c(OCC(=O)O)cccc43)nc2)c1 (stereo not shown) [Example 31, {5-[5-(3-Isopropyl-phenyl)-pyridine-2-sulfonylamino]-6,7,8,9-tetrahydro-5H-benzocyclohepten-1-yloxy}-acetic acid]
123 nM | 33.7 nM | Cc1cncc(-c2ccc(S(=O)(=O)NC3CCCCc4c(OCC(=O)O)cccc43)cc2)c1 (stereo not shown) [Example 25, {5-[4-(5-Methyl-pyridin-3-yl)-benzenesulfonylamino]-6,7,8,9-tetrahydro-5H-benzocyclohepten-1-yloxy}-acetic acid]
140 nM | 17.9 nM | Cc1cc(-c2ccc(S(=O)(=O)NC3CCCCc4c(OCC(=O)O)cccc43)nc2)cc(C(C)(C)C)c1 (stereo not shown) [Example 35, {5-[5-(3-tert-Butyl-5-methyl-phenyl)-pyridine-2-sulfonylamino]-6,7,8,9-tetrahydro-5H-benzocyclohepten-1-yloxy}-acetic acid]
214 nM | 17 nM | O=C(O)COc1cccc2c1CCCCC2NS(=O)(=O)c1ccc(-c2cccc(CCO)c2)cn1 (stereo not shown) [Example 37, (5-{5-[3-(2-Hydroxy-ethyl)-phenyl]-pyridine-2-sulfonylamino}-6,7,8,9-tetrahydro-5H-benzocyclohepten-1-yloxy)-acetic acid]
29.2 nM | 178 nM | O=C(O)COc1cccc2c1CCCCC2NS(=O)(=O)c1ccc(-c2cccc(C(F)(F)F)c2)cn1 (stereo not shown) [Example 33, {5-[5-(3-Trifluoromethyl-phenyl)-pyridine-2-sulfonylamino]-6,7,8,9-tetrahydro-5H-benzocyclohepten-1-yloxy}-acetic acid]
 | 11.4 nM | CN(C1CCCCc2c(OCC(=O)O)cccc21)S(=O)(=O)c1cc(C(F)(F)F)cc(S(C)(=O)=O)c1 (stereo not shown) [Example 18, {5-[(3-Methanesulfonyl-5-trifluoromethyl-benzenesulfonyl)-methyl-amino]-6,7,8,9-tetrahydro-5H-benzocyclohepten-1-yloxy}-acetic acid]
 | 158 nM | COc1cc(C(F)(F)F)cc(S(=O)(=O)NC2CCCCc3c(OCC(=O)O)cccc32)c1 (stereo not shown) [Example 13, [5-(3-Methoxy-5-trifluoromethyl-benzenesulfonylamino)-6,7,8,9-tetrahydro-5H-benzocyclohepten-1-yloxy]-acetic acid]
 | 555 nM | Cc1ccc(-c2cccc(S(=O)(=O)N(C)C3CCCCc4c(OCC(=O)O)cccc43)c2)cc1 (stereo not shown) [Example 40, {5-[Methyl-(4′-methyl-biphenyl-3-sulfonyl)-amino]-6,7,8,9-tetrahydro-5H-benzocyclohepten-1-yloxy}-acetic acid]
 | 845 nM | CC(C)c1cccc(-c2cccc(S(=O)(=O)N(C)C3CCCCc4c(OCC(=O)O)cccc43)c2)c1 (stereo not shown) [Example 42, {5-[(3′-Isopropyl-biphenyl-3-sulfonyl)-methyl-amino]-6,7,8,9-tetrahydro-5H-benzocyclohepten-1-yloxy}-acetic acid]
 | 106 nM | CC(C)c1cccc(-c2ccc(S(=O)(=O)N(C)C3CCCCc4c(OCC(=O)O)cccc43)cc2)c1 (stereo not shown) [Example 20, {5-[(3′-Isopropyl-biphenyl-4-sulfonyl)-methyl-amino]-6,7,8,9-tetrahydro-5H-benzocyclohepten-1-yloxy}-acetic acid]
 | 11.4 nM | CS(=O)(=O)c1cc(C(F)(F)F)cc(S(=O)(=O)NC2CCCCc3c(OCC(=O)O)cccc32)c1 (stereo not shown) [Example 17, [5-(3-Methanesulfonyl-5-trifluoromethyl-benzenesulfonylamino)-6,7,8,9-tetrahydro-5H-benzocyclohepten-1-yloxy]-acetic acid]
